From patent publication US10278956B1, “Use of intravenous melatonin in patients with ST-elevation myocardial infarction” (priority 2018, dated 2019)
Entries after “also recorded” stand apart in the source; their conditions may differ.

Legend:
[1] = tested on: closed-chest porcine model; conditions: combined intracoronary and intravenous treatment; cited from earlier work
[2] = tested on: patients with ST-segment elevation myocardial infarction (STEMI); conditions: earlier published trial; cited from earlier work
STEMI-patients = experiment: Pilot randomized, double-blinded, placebo controlled study of intravenous melatonin before pPCI; infarct size by CMR; type: in vivo, human
Method: This pilot study is a prospective, randomized, double-blinded, placebo controlled study of consecutive patients admitted with a STEMI. Additional inclusion criteria were presented within 6 hours of chest pain onset and occlusion of culprit artery with TIMI basal flow grade 0 to 1. Patients randomised to intravenous melatonin received a dose of 12 mg (51.7 μmol, in saline solution, in a volume of 50 ml in an opaque syringe) given by a time period of 60 minutes starting immediately before primary percutaneous coronary intervention (pPCI), by via a catheter positioned within a peripheral vein. The control group received a matching intravenous placebo formulation.
A total of 31 patients were enrolled. Groups were well balanced for age, gender, and cardiovascular risk factors. No significant differences were observed between groups concerning baseline clinical and angiographic characteristics. Randomized patients were divided in 2 groups: Group 1 (patients with ischemia duration 3 hours) and Group 2 (patients with ischemia duration >3 hours). Group 1 there had 17 patients (8 treated with melatonin and 9 with placebo) and in the group 2 there were 14 patients (6 treated with melatonin and 8 with placebo).
Myocardial infarct size was calculated as percentage of left ventricular mass by cardiovascular magnetic resonance (CMR).

[3] = Group 1 (≤3 hours ischemia duration), 12 mg intravenous over 60 min starting immediately before pPCI, CMR, *P < 0.01 vs Placebo
[4] = Group 2 (>3 hours ischemia duration), 12 mg intravenous over 60 min starting immediately before pPCI, CMR

COc1ccc2[nH]cc(CCNC(C)=O)c2c1 [Melatonin, melatonin]
Myocardial reperfusion injury [1]: did not reduce myocardial reperfusion injury | Effect on ventricular volumes and LVEF evolution [2]: unfavorable effect | Myocardial infarct size (MIS) compared with placebo [2]: failed to reduce myocardial infarct size | Infarct size (g) (STEMI-patients; [3]): 16.53 ± 7.28* g | Infarct size (proportion of left ventricular mass) % (STEMI-patients; [3]): 17.71 ± 7.55* % | Infarct size (STEMI-patients; [4]): 25.69 ± 7.34 g | Infarct size (proportion of left ventricular mass) % (STEMI-patients; [4]): 20.62 ± 5.37% | Myocardial infarct size compared with placebo (STEMI-patients; intravenous, given within 3 hours or less after symptom onset (group 1)): significantly reduces myocardial infarct size; also recorded: significantly smaller | Effect on myocardial infarct size compared with placebo (STEMI-patients; time from symptom onset to melatonin administration longer than 3 hours): significantly reduced or even opposite effect
